Drawing on ChEMBL document CHEMBL4346723, “Targeting tropomyosin receptor kinase for cancer therapy” (Eur J Med Chem, 2019), this text covers IC50 for 32 compounds.

pIC50: −log10 of the molar value. Some results are limits rather than exact numbers.

Test system in the first experiment: not listed separately
The experiment is described as follows: Inhibition of TRK (unknown origin). Further details: species or system Homo sapiens.
Compound `C[C@H](Nc1nccc(Nc2cc(C3CC3)[nH]n2)n1)c1ccc(F)cc1` showed a pIC50 of 7.17. In turn, `C[C@H](Nc1ncc(Br)c(Nc2cc(C3CC3)[nH]n2)n1)c1ccc(F)cn1` had a pIC50 of 8.30. Same read-out and setting: then `C[C@H](Nc1ccc([N+](=O)[O-])c(Nc2cc(C3CC3)[nH]n2)n1)c1ccc(F)cc1`, with 7.20. On the same count and under the same terms, then `C[C@H](Nc1nc(Nc2cc(C3CC3)[nH]n2)c(F)cc1CNC(=O)C1CCC(=O)N1)c1ccc(F)cc1` (some centres not stated), with 6.21.

The compound `C[C@H](Nc1ncc(Cl)c(Nc2cc(C3CC3)[nH]n2)n1)c1ccc(F)cn1` had a pIC50 of 8.10. In the case of `CS(=O)(=O)Nc1cccc(-c2c[nH]c3ncc(-c4cncc(NS(=O)(=O)c5ccccc5)c4)cc23)c1`, the pIC50 is < 6.00.

`C[C@H](Nc1ncc(F)c(Nc2cc(C3CC3)[nH]n2)n1)c1ccc(F)cn1` gave a pIC50 of 8.00. Still for that read-out and setting: then `C[C@H](Nc1cc(Nc2cc(C3CC3)[nH]n2)c([N+](=O)[O-])cc1F)c1ccc(F)cc1`, with 6.37; and `COc1ccc2nc(N[C@@H](CO)c3ccc(F)cc3)nc(Nc3cc(C4CC4)[nH]n3)c2c1`, with 7.06; and `C[C@H](Nc1cc(NCCO)c([N+](=O)[O-])c(Nc2cc(C3CC3)[nH]n2)c1)c1ccc(F)cc1`, with 5.91. In turn, `N#Cc1cc([N+](=O)[O-])c(Nc2cc(C3CC3)[nH]n2)cc1N[C@@H](CO)c1ccc(F)cc1` showed a pIC50 of 6.07.

For `C[C@H](Nc1nc(Nc2cc(C3CC3)[nH]n2)c(Cl)cc1Cl)c1ccc(F)cc1`, the pIC50 was 6.96. Same read-out and setting: then `C[C@@H]1CCc2ncc(F)cc2[C@H]2CCCN2c2ccn3ncc(c3n2)C(=O)N1` [SELITRECTINIB], with < 6.00. For the compound `Nc1cc(NS(=O)(=O)c2cccc(C(F)(F)F)c2)cc(-c2ccc3c(-c4ccncc4)c[nH]c3n2)c1`, the pIC50 was < 6.00. The compound `OCC[C@H](Nc1nc(Nc2cc(C3CC3)[nH]n2)c2sccc2n1)c1ccc(F)cc1` had a pIC50 of 7.23.

The next experiment addresses NTRK1/NTRK2 (Homo sapiens, UniProt P04629+Q16620). The experiment is described as follows: Inhibition of TRKA/TRKB (unknown origin). In kind it is protein assay.
In the case of `CC(C)c1cc(C(=O)c2cccc(NC(=O)Nc3ccc4ccccc4c3)c2)c2c(N)ncnn12`, the IC50 is reported as < 1 nM. On the same count and under the same terms, then `CC(C)c1cc(C(=O)c2cccc(NC(=O)Nc3ccccc3)c2)c2c(N)ncnn12`, with < 1 nM; and `CN(C)CCCc1cc(C(=O)c2cccc(NC(=O)Nc3ccc(Cl)cc3Cl)c2)c2c(N)ncnn12`, with < 1 nM; and `CC(C)c1cc(C(=O)c2cccc(NC(=O)Nc3ccc(OCc4ccccc4)cc3)c2)c2c(N)ncnn12`, with < 1 nM.

The next experiment deals with T1, High affinity nerve growth factor receptor (Homo sapiens, UniProt P04629). The experiment is described as follows: Inhibition of TRKA (unknown origin) using poly GT as substrate preincubated for 30 mins followed by substrate addition measured after 30 mins by TR-FRET Assay.
T1 sequence (P04629 whole entry): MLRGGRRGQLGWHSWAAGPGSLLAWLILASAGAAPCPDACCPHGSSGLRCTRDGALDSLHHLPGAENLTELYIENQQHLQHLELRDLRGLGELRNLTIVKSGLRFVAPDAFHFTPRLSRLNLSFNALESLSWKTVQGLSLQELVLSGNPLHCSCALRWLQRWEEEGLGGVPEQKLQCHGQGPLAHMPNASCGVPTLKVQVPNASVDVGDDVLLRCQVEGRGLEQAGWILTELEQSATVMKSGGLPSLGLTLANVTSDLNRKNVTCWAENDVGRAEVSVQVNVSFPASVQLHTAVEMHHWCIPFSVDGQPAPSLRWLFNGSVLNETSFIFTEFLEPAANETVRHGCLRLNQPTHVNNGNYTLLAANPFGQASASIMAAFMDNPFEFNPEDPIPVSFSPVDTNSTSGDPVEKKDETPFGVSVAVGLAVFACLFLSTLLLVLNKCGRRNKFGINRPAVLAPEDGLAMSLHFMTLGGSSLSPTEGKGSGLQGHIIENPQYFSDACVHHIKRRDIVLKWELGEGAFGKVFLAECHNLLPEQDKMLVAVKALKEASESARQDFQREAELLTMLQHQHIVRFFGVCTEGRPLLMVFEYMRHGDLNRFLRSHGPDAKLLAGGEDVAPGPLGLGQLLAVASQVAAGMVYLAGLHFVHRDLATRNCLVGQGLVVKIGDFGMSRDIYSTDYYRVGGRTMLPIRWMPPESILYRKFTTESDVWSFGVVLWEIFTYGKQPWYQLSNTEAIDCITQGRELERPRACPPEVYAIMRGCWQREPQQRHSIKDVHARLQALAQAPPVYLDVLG
In the case of `O=C(Nc1ccc(F)cc1)c1cnc2ccc(N3CCCC3c3cc(F)ccc3F)cn12` (configuration not stated), the pIC50 was > 7.30. The same measure, in the same setting: with `O=C(c1cnc2ccc(N3CCCC3c3cc(F)ccc3F)cn12)N1CC(O)C1` (configuration not stated) the figure was > 7.30.

Take `O=C(c1cnc2ccc(N3CCCC3c3cc(F)ccc3F)cn12)N1CC[C@H](O)C1` (some centres not stated): the pIC50 is > 7.30.

Another experiment has as its target T1, High affinity nerve growth factor receptor. The experiment is described as follows: Inhibition of recombinant full length human TRKA expressed in U2OS cells using Poly(Glu:Tyr) as substrate after 30 mins by scintillation counting assay.
Take `O=C(Cn1c2c(c3cc(F)ccc31)CCn1nccc1-2)NCc1ccc(-c2c(F)cccc2F)cn1`: the pIC50 was 9.00 to 9.05. Still for that read-out and setting: with `CS(=N)(=O)c1ccc(-c2ccc(CNC(=O)Cn3c4c(c5cc(F)ccc53)CCn3nccc3-4)nc2)cc1` (configuration not stated) the figure was 9.00 to 9.15. The same measure, in the same setting: with `CC(C)(O)c1ccc2nc(-c3ccccc3)c(NC(=O)c3cc(-c4ncccn4)c(C(F)(F)F)cc3F)n2c1` the figure was 9.05.

For `O=C(Nc1c(-c2ccccc2)nc2sccn12)NC1c2ccccc2-c2ccccc21`, the pIC50 was 7.46 to 7.52.

As for `O=C(Nc1c(-c2ccccc2)nc2ccccn12)NC1c2ccccc2-c2ccccc21`, the pIC50 was 7.52 to 7.55.

With `Cn1ccc(-c2cc(C(=O)Nc3c(-c4ccccc4)nc4ccc(CO)cn34)ccc2C(F)(F)F)n1`, the pIC50 was 9.00. For `O=C(Nc1cccnc1-c1ccccc1)NC1c2ccccc2-c2ccccc21`, the pIC50 is 7.52 to 7.57. In the case of `Cc1nc(-c2ccccc2)c(NC(=O)Nc2cnc3ccccn23)s1`, the pIC50 is 7.32. `CS(=N)(=O)c1ccc(-c2ccc(CNC(=O)Cn3c4c(c5ccccc53)CCn3nccc3-4)nc2)cc1` (configuration not stated): the pIC50 is 9.00 to 9.30.

Another experiment shares this target. The experiment is described as follows: Inhibition of NTRK1 in human KM12 cells. Type of experiment: cell-based.
Take `N#Cc1cnn2ccc(N3C[C@@H](F)C[C@@H]3c3cc(F)ccc3F)nc12`: the pIC50 was > 8.00.
